The record followed here is publication PMC5347425, “Small Molecule-Induced Domain Swapping as a Mechanism for Controlling Protein Function and Assembly” (Scientific Reports, 2017).

This test deals with T1, ribose binding protein (RBP) (Caldanaerobacter subterraneus, UniProt Q8RD41).
T1 construct: gene RbsB; RF125: RBP with human FKBP12 (V24A and C22A) inserted at position 125, without the NFM and CFM mutations
As to the kind of experiment: isothermal titration calorimetry. (In general: ITC needs no label: the signal is the heat of the interaction.)

T1 sequence (Q8RD41 24-313): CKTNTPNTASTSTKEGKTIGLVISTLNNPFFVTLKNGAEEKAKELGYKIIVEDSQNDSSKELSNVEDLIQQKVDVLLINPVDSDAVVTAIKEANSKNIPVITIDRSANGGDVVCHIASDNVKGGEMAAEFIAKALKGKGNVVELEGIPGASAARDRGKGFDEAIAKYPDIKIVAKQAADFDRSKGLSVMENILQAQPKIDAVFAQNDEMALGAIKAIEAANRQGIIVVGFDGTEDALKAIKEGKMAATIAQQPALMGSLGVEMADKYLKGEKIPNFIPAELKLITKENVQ
T1 sequence (P62942 with tags, fused parts or gaps C23A/V25A partner): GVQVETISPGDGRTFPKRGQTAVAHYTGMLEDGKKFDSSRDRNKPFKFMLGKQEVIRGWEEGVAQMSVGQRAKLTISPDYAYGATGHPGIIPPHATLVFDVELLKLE

With `O=C[C@H](O)[C@H](O)[C@H](O)CO` [ribose], the equilibrium dissociation constant (Kd) – broadly, the concentration at which binding is half-saturated – amounted to 12.8 nM.
